Experimental data reported in patent publication US7402574B2, “Antisense composition and method for treating cancer” (AVI BioPharma, Inc., priority 2004, dated 2008).

What was measured:
[1] = system: HCT-116; test: HCT-116 cells treated with sulindac sulfide, apoptosis and proliferation; format: cell-based, human; conditions: 100 μM, 3 days
[2] = system: E-Cadherin; test: HCT-116 cells treated with sulindac sulfide, E-Cadherin by RT-PCR; format: cell-based, human; conditions: 100 μM, 3 days
Method: (§1) For chemopreventive studies, we treated the human CRC cell line HCT-116 with sulindac sulfide (100 μM) or vehicle for 3 days and analyzed SNAIL and E-Cadherin by RT-PCR. In order to evaluate frequency of SNAIL overexpression in human colon cancer, we immunohistochemically probed a tissue array using a poly clonal antibody. Finally, to determine whether SNAIL is implicated in E-cadherin donwregulation in CRC, we treated 10 week old male MIN mice with antisense PMO to SNAIL (250 μg/day for 5 weeks) and examined E-cadherin levels in the uninvolved intestine using Western blot analysis.

[3] = system: SNAIL; test: HCT-116 cells treated with sulindac sulfide, SNAIL by RT-PCR; format: cell-based, human; conditions: 100 μM, 3 days, p=0.007
Method: as §1

[4] = system: mucosal proliferation (BrdU labeling); test: MIN mice, immunohistochemical analysis of intestinal segments for proliferation (BrdU labeling); format: in vivo; conditions: daily i.p. 5 weeks, 200 μg/20 g mouse, BrdU 2 h prior to sacrifice, control 8.92 ± 8.00, p < 0.05
Method: (§2) Sixteen MIN mice (9-10 week old) were randomized to daily i.p. injections for 5 weeks with either saline or anti-SNAIL phosphorodiamidate morpholino antisense oligomers (PMO; 200 μg/20 g mouse). Animals were given BrdU 2 h prior to sacrifice and intestinal tumors were scored under magnification by observers blinded to treatment group. Immunohistochemical analysis was performed on formalin fixed intestinal segments for proliferation (BrdU labeling), apoptosis (using activated caspase 3) and SNAIL downregulation. The samples were scored by a gastrointestinal pathologist.

[5] = system: activated caspase 3; test: MIN mice, immunohistochemical analysis of intestinal segments for apoptosis (activated caspase 3); format: in vivo; conditions: daily i.p. 5 weeks, 200 μg/20 g mouse, immunohistochemistry, control 1.00 ± 0.74, p < 0.05
Method: as §2

[6] = system: APC^MIN mouse; test: MIN mice, anti-SNAIL PMO daily i.p. 5 weeks, intestinal tumors scored; format: in vivo; conditions: 200 μg/20 g mouse
Method: as §2

[7] = system: Apc^Min/+ (MIN) mouse; test: MIN mouse, antisense SNAIL PMO IP for four weeks, adenomatous polyp / tumor formation; format: in vivo; conditions: MIN mice, 4 weeks treatment, IP 250 μg per day, five days per week
Source text: The Apc^Min/+ (MIN) mouse is a model for colorectal cancer and was used by the inventors to study the effects of antisense SNAIL PMO on the incidence and development of intestinal precancerous lesions (see e.g. Examples 2&3). The MIN mouse has a germ-line mutation in the adenomatous polyposis coli (Apc) gene which leads to familial adenomatous polyposis (FAP). Inactivation of Apc is found in 80% of sporadic human colorectal cancers and in humans with FAP (Kinzler and Vogelstein 1996). The MIN mouse model mimics the rapid development of adenomatous polyps that affect humans with germ-line inactivation of one Apc gene and therefore is a respected model for human colon carcinogenesis.
This observation clearly supports the role of SNAIL in the progression of colon carcinogenesis and as a potent target for anti-carcinogenic therapies.
Ten week-old MIN mice were injected intraperitonealy (IP) with SNAIL PMO (SEQ ID NO: 11) at a dose of 250 μg per day, five days per week for four weeks. Control mice were not injected with any antisense compound and were allowed to develop colon cancers.

[8] = system: SNAIL; test: MIN mice, immunohistochemical analysis of intestinal segments for SNAIL downregulation; format: in vivo; conditions: daily i.p. 5 weeks, 200 μg/20 g mouse
Method: as §2

[9] = system: E-cadherin; test: MIN mice treated with antisense PMO to SNAIL, E-cadherin in uninvolved intestine by Western blot; format: in vivo, mouse; conditions: 10 week old male MIN mice, 250 μg/day for 5 weeks, p=0.027
Method: as §1

[10] = system: MIN mice; test: Hair loss (alopecia) in PMO treated MIN mice; format: in vivo, mouse; conditions: antisense treated MIN mice, Example 3
Source text: As described above, SNAIL binds the E-box motifs of E-cadherin, and therefore inhibits E-cadherin expression. E cadherin is required for proper hair follicle cycling (Young, Boussadia et al. 2003). E-cadherin binds with β-catenin altering its location within the cell as well as reducing its availability. Decreasing the level of SNAIL leads to increased E-cadherin which then limits the availability of β-catenin. The decrease in β-catenin leads to an increase in genes in the NF-kappa beta pathway, including Fas and TRAF1. […] Antisense SNAIL PMO administered systemically (e.g. intravenous injection as in Example 3) could cause alopecia through Fas-mediated apoptosis of hair follicle cells or because E cadherin levels have increased sufficiently to cause abnormal hair follicle cycling.
as §2

Row | Compound | apoptosis [1] | proliferation [1] | E-cadherin expression [2] | SNAIL expression (% of vehicle) [3] | BrdU Positive (% Total) [4] | Cleaved Caspase-3 (Arbit. Units) [5] | Tumor incidence (%) ([6]; control 25.06 ± 4.10, p < 0.05) | anti-tumorigenic effect (decrease) ([6]; versus saline control) | reduction in formation of adenomatous polyps, colon [7] | reduction in formation of adenomatous polyps, proximal bowel [7] | total number of tumors reduced [7] | SNAIL (Arbit. Units) ([8]; immunohistochemistry, control 2.58 ± 0.67, p < 0.05) | suppression of SNAIL protein expression ([8]; versus saline control) | increase in intestinal E-cadherin protein [9] | hair loss (alopecia) [10] | hair loss (alopecia) ([10]; listed as Antisense SNAIL PMO)
1 | CSc1ccc(/C=C2/C(C)=C(CC(=O)O)c3cc(F)ccc32)cc1 [sulindac sulfide] | induced apoptosis | inhibited proliferation | induction | 39.2 % of vehicle | – | – | – | – | – | – | – | – | – | – | – | –
2 | SNAIL PMO: phosphorodiamidate morpholino antisense oligomer GGAGCGCGGCATGTTGGCC, target ncts. 8-26 of GenBank M95604 (all phosphorodiamidate morpholino (PMO)) | – | – | – | – | 3.43 ± 3.80 % Total | 1.50 ± 0.65 Arbit. Units | 19.57 ± 6.16% | 22% | 44.1% | 41.6% | 21.9% | 2.00 ± 0.58 Arbit. Units | 23% | 26% | pronounced hair loss (alopecia) | induce alopecia
